According to EP2924037A1, “QUINAZOLINE DERIVATE AND USE THEREOF AS APOPTOSIS INHIBITOR” (Linx Pharmaceutical Co., Ltd., priority 2012, dated 2013):

Assays:
[1] = tested on: E. coli induced sepsis model; experiment: E. coli induced sepsis model in mice; type: in vivo, BALB/C mice; conditions: 0.4 mg/kg, 1.5 hours following injection of E. coli
Method: Terazosin was tested in a model of septicemia caused by E. coli injected. […] To determine the potential antibacterial effect, the growth of E. coli was examined in the presence of terazosin.

[2] = tested on: LPS-induced sepsis model
Method: Male BALB/C mice (20±3g) from Vital River (Beijing, China) were housed in the Animal Center of Peking University. […] For the LPS model of sepsis, each mouse was injected with LPS (13.5 mg/kg, i.p.) once. […] Terazosin (0.4 mg/kg or 0.04 mg/kg) or saline was then injected (i.p.) 1.5 hours after LPS infusion. Lethality was recorded every 12 hours for 7 days.
24 hrs after LPS injection, one thymus from each mouse was collected. Then, the genomic DNA of thymus was extracted with a genomic DNA purification kit (Biofuture, Beijing, China). DNA fragmentation was assessed on a DNA agarose gel.

[3] = tested on: active form of caspase-3 in Raw 264.7 cells; experiment: Western blot of the active form of caspase-3 in cells treated with LPS and IFNγ; type: cell-based
Method: CLP was done one week after the injection.
For Western blot, an anti-active Caspase 3 antibody (#9664, Cell Signaling) was used. The anti-actin antibody was purchased from Wuhan Boster company, China.
(§1) RAW 264.7 cells were cultured in the DMEM medium (Gibco) supplemented with 5% FBS, streptomycin (0.1 mg/mL) and penicillin (0.06 mg/mL). To induce apoptosis, 2 µg/mL lipopolysaccharide (LPS; Escherichia coli O111:B4, Sigma-Aldrich) and IFN-γ (50 U/mL, Peprotech) were added, and a predetermined concentration of the testing compound was added at the same time. Cell death was assessed by Western blot with an anti-active Caspase 3 antibody (#9661, Cell Signaling). β-Actin (Boster) was used as internal control for protein loading. The ratio of Caspase 3/β-Actinwas was used to assess apoptosis.

[4] = Blood pressure of injected mice; type: in vivo; conditions: 0.08 mg/kg
Method: (§2) Because E. coli and LPS models can only simulate Gram-negative bacteria infections, terazosin was further tested in a cecal ligation and puncture (CLP) model, which is believed to be the classic standard model of experimental septicemia (Parker and Watkins, 2001; Wichterman et al., 1980). First, 0.4 mg/kg of terazosin (same concentration as used in the LPS model) was tested. […] This may be due to severe cardiac dysfunction and hypotension induced by CLP. Thus, the blood pressure lowering function of the drug may have masked its anti-apoptotic effect. […] In addition, the combination of terazosin and antibiotics was tested. Terazosin was combined with amoxicillin and clavulanate potassium (Co-Am, amoxicillin and clavulanate potassium in a weight ratio of 4: 1, by way of a specific example elsewhere or instance mentioned in the present invention, also means a 4 : 1 ratio. Skilled in the art can understand, when a combination of amoxicillin and clavulanate potassium is referred to, the weight ratio of amoxicillin and clavulanate potassium can be from 1:1 to 10:1, especially 1:1-7:1, for example, about 1:1, about 4:1, about 7:1).

[5] = tested on: sepsis models (LPS; Cecal Ligation and Puncture); experiment: Effects against sepsis (LPS and CLP models), 7-day survival; type: in vivo, BALB/C mice; conditions: i.p. once a day for 3 days at 0.4 mg/kg; 7-day period; P < 0.05 compared to negative controls
Method: After 1.5 hours, compounds were injected (i.p.) at a predetermined concentration. Mouse survival was examined every 12 hours for 7 days. Statistical significance of the difference in the survival rates was analyzed.
Another model is Cecal Ligation and Puncture (CLP) model of sepsis. Mice were anesthetized. A 1.5-2.0 cm long abdominal midline incision was made and the cecum was exposed. After ligation 5 mm from the cecal tip, the cecum was punctured once with a 22-gauge needle, and some stool was squeezed out. Then the cecum was put back into the abdomen and the abdomen was closed by running suture. After 1.5 hours, compounds were injected (i.p.) at a predetermined concentration. Mouse survival was examined every 12 hours for 7 days. Statistical significance of the difference in the survival rates was analyzed.
These compounds were individually injected (i.p.) once a day for 3 days at 0.4 mg/kg.

[6] = tested on: E. Coli O111:B4; experiment: Oxford Cup test of antibiotic activity; type: cell-based; conditions: after 24 hrs; terazosin 0.2µg, 2µg, 200µg, 2mg; ampicillin 2mg
Method: The antibiotic activity of terazosin was measured by Oxford Cup test. Oxford Cups containing different concentrations of terazosin were placed in the petri dish wherein E. Coli O111:B4 was cultured on LB medium. The effects of terazosin and ampicillin on the growth of E. Coli were examined after 24 hrs.

[7] = tested on: HS>rpr Drosophila; experiment: Compound screen in the apoptotic HS>rpr Drosophila model; type: in vivo; conditions: heat shock at 37 °C; 25 compounds screened
Method: HS-Gal4 (a promoter that can be expressed in whole body and activated by heat), can promote expression of any genes having repeated UAS (upstream activating sequence) at the 5' region. The HS-Gal4 and UAS-Reaper Drosophila were crossed at 18 °C to produce hybrids referred to as HS> rpr, and the female offspring underwent normal development. However, with heat shock for 2-3 hours at 37 °C, about 50-70% of the offspring died after 14-24 h (Fig. 1). 25 compounds were selected (Fig. 2) to determine their impact on the lethal rate of HS> rpr.
UAS-rpr and HS-Gal4 flies were obtained from Bloomington Stock Center in the US. The F1 progenies (HS>rpr) from the cross of these two lines were raised at 18 °C for the compound screen. Compounds were dissolved in 5% sucrose at the concentrations used in the culture media for Cmap. The compound solution (150 µL) was added to a vial containing three layers of filter papers. Twenty adult HS>rpr flies aged 1-3 days were then placed into each vial for 24 hours. The flies were heat shocked at 37 °C for 2 hrs. The survival rate was calculated 12 hrs after the heat shock.

[8] = Effect on serum glucose in mice; type: in vivo; conditions: Mus musculus, ip, 18 h, read-out: reduction of the serum glucose level
Method: Mice were injected terazosin (0.4 mg/kg i.p.) once. The serum glucose level of the mice was measured 18 hours later. […] By the same method, exemplary compounds Co.1, Co.3, Co.7, Co.9, Co.13, Co.16, Co.19, Co.24, Co.27 and Co.32 as described in the present invention were all shown to be effective to reduce the serum glucose level by 20% to 50%.

[9] = tested on: CLP model of sepsis; type: in vivo, BALB/C mice
Method: as §2
For the CLP model of sepsis, mice were anesthetized with chloral hydrate (300 mg/kg, i.p.). Then, a 1.5-2.0 cm long abdominal midline incision was made and the cecum was exposed. […]

[10] = tested on: RAW264.7 macrophage cells; experiment: LPS and IFNγ induced apoptosis, Annexin V staining; type: cell-based; conditions: Mus musculus, LPS (2 µg/ml) and IFNγ (50 U/ml), read-out: reduction of apoptosis
Method: Cells were stained with Annexin V to examine apoptosis (Fig. 4). […] Terazosin (4 µg/ml) can reduced 50% of apoptosis (Fig. 4).
The RAW 264.7 cells were cultured in the DMEM medium (Gibco) supplemented with 10% FBS (Gibco), streptomycin (0.1 g/L) and penicillin (0.06 g/L) (Amresco). To induce apoptosis, RAW 264.7 cells at 90% confluence were incubated in DMEM (10% FBS) containing 2 µg/mL lipopolysaccharide (LPS; Escherichia coli O111:B4, Sigma) for 24 hours.
as §1

COc1cc2nc(N3CCN(C(=O)C4CCCO4)CC3)nc(N)c2cc1OC (stereo not drawn) [Co.33, (4-(4-amino-6,7-dimethoxyquinazolin-2-yl)piperazin-1-yl)(tetrahydrofuran-2-yl)methanone]
protection from E. coli-induced death [1]: can protect mice from E. coli-induced death
effect in later phases of septicemia (survival) ([2]; injected at 12 hours after LPS treatment (0.04 mg/kg per Fig. 6)): satisfactory results
DNA ladders in genomic DNA of the thymus ([2]; mice treated with LPS and terazosin vs LPS, 24 hrs after LPS injection): significantly reduced
active form of caspase-3 [3]: decreased
blood pressure of the injected mice [4]: completely normal
survival against sepsis [5]: significantly increased survival against sepsis
growth of E. coli (inhibition zones) [6]: cannot inhibit the growth of E. coli
survival rate of HS>rpr Drosophila [7]: significantly improve the survival rate
inhibition in vivo at 0.4 mg/kg [8]: 30%
survival of mice in the CLP model ([9]; 0.08 mg/kg, injected at 1.5 hours and 24 hours after surgery): significantly promoted the survival of mice
death of mice in the CLP model versus control ([9]; mouse, in vivo): died faster than the control group
inhibition at 4 µg/mL [10]: 50%
